Test results reported in patent US6037341A, “Carbapenem derivatives” (Eisai Co., Ltd., priority 1994, dated 2000).
Converted amounts (≈) assume the structure as drawn.

Columns and labels:
Assay type in all cases: cell-based
E. coli CS109 = test: MIC, E. coli CS109; details: Escherichia coli
P. aeruginosa PA01 = test: MIC, P. aeruginosa PA01; details: Pseudomonas aeruginosa
[1] = tested on: P. aeruginosa E03441/SKR2; test: MIC, P. aeruginosa E03441/SKR2; details: Pseudomonas aeruginosa
P. aeruginosa NCTC10490 = test: MIC, P. aeruginosa NCTC10490; details: Pseudomonas aeruginosa
H. influenzae IID1638 = test: MIC, H. influenzae IID1638; details: Haemophilus influenzae
P. aeruginosa E03441/R24 = test: MIC, P. aeruginosa E03441/R24; details: Pseudomonas aeruginosa
P. aeruginosa E03402 = test: MIC, P. aeruginosa E03402; details: Pseudomonas aeruginosa
[2] = tested on: P. aeruginosa E03441/SKR2/I-2; test: MIC, P. aeruginosa E03441/SKR2/I-2; details: Pseudomonas aeruginosa
S. aureus E31295 = test: MIC, S. aureus E31295; details: Staphylococcus aureus
[3] = tested on: P. aeruginosa E03441/SKR2-14; test: MIC, P. aeruginosa E03441/SKR2-14; details: Pseudomonas aeruginosa, E03441/SKR214
P. aeruginosa E03763 = test: MIC, P. aeruginosa E03763; details: Pseudomonas aeruginosa
P. aeruginosa E03441/WT = test: MIC, P. aeruginosa E03441/WT; details: Pseudomonas aeruginosa

C[C@@H](O)[C@H]1C(=O)N2C(C(=O)O)=C(S[C@@H]3CN[C@H](C(O)C4CCNC4)C3)[C@H](C)[C@H]12 (stereo partly drawn) showed an MIC (E. coli CS109) of 0.05 µg/mL (≈ 0.121 µM), an MIC (P. aeruginosa PA01) of 0.2 µg/mL (≈ 0.486 µM) and an MIC [1] of 0.2 µg/mL (≈ 0.486 µM). It also gave an MIC (P. aeruginosa NCTC10490) of 0.1 µg/mL (≈ 0.243 µM), an MIC (H. influenzae IID1638) of 0.2 µg/mL (≈ 0.486 µM) and an MIC (P. aeruginosa E03441/R24) of 3.13 µg/mL (≈ 7.61 µM). The MIC (P. aeruginosa E03402) was 0.1 µg/mL (≈ 0.243 µM), the MIC [2] was 0.4 µg/mL (≈ 0.972 µM) and the MIC (S. aureus E31295) was 0.1 µg/mL (≈ 0.243 µM). It also gave an MIC [3] of 0.1 µg/mL (≈ 0.243 µM), an MIC (P. aeruginosa E03763) of 0.8 µg/mL (≈ 1.94 µM) and an MIC (P. aeruginosa E03441/WT) of 0.2 µg/mL (≈ 0.486 µM).
